Experimental data: a melting point compilation (Tetko et al.; mined from patent text by program, amines drawn as free bases though some values may be those of a salt)

Row | melting point | Compound
1 | 59.5 to 61 °C | CCc1cc(CC)c2ccc(=O)n(CCN(C)C)c2n1
2 | 125 to 126 °C | CCOc1nn(-c2ccc(C(F)(F)F)cn2)cc1CCCOc1cc(CC(=O)O)cc(OC)c1
3 | 319 °C | O=C(O)c1ccc(C(=O)Nc2cccc([N+](=O)[O-])c2)cc1
4 | 189 to 190 °C | CC(C)n1nc(-c2c(-c3ccccc3)nn3ccc(OCC(=O)N(C)C)cc23)ccc1=O
5 | 93 to 94 °C | OCc1nn(-c2cccc(C(F)(F)F)c2)c2c1CCCC2
6 | 237 to 239 °C | CCC(NC(C)=O)c1ccc(Cl)c2nc3n(c12)CCCN3c1ccc(Cl)cc1Cl (stereo unspecified)
7 | 157 to 159 °C | C=CCN(CC=C)c1nc(NC(=O)CC)n2oc(=O)nc2n1
8 | 170 °C | COc1ccc(-c2c(SCc3ccncc3)oc3cc(OCc4ccccc4)ccc3c2=O)cc1
9 | 51 to 52 °C | CCOC(=O)CC1CCc2ccc(COc3ccc(C#N)cc3)cc2C1 (stereo unspecified)
10 | 113 to 115 °C | CCCCCCC(=O)c1ccc(OCCN2CCN(c3cc(Cl)nnc3Cl)CC2)cc1
11 | 226 to 228 °C | CC(C)(O)c1ccc(-c2cnc3[nH]c(=O)n(CC4CCCCC4)c3n2)cc1
12 | 83 to 85 °C | COCCOc1c(C(=O)CC(=O)C(=O)O)ccc(Cc2ccccc2)c1OC
13 | 154 to 155 °C | Cc1cc(-c2ccccc2)nc2nc(SCc3ccccc3)nn12
14 | 221 to 223 °C | CC(C)=NNc1cc2c(nn1)CCN(C(=O)c1ccc(Cl)cc1)C2
15 | 175 to 176 °C | CCOCN1C(C)=C(C(=O)O)C(c2cccc([N+](=O)[O-])c2)C(C(=O)O)=C1C
16 | 159 to 160 °C | Cc1oc(-c2ccccc2)nc1COc1ccc2cc(CCCC3OC(=O)NC3=O)oc2c1 (stereo unspecified)
17 | 171 °C | O=C(NN=Cc1ccc2ccccc2n1)c1ccccc1
18 | 201 to 203 °C | CCCOc1cc(-c2ccc3c(c2)C=C(C(=O)Nc2ccc(CN(C)C4CCOCC4)cc2)CCS3(=O)=O)ccc1C#N
19 | 207 to 209 °C | Cc1nc2c(N)nc3ccccc3c2n1CCOCCNC(=O)NC1CCCCC1

Row | melting point | Compound
20 | 190 to 194 °C | O=C(NO)c1cnc(N(CCO)Cc2cc3nc(-c4cccc5[nH]ncc45)nc(N4CCOCC4)c3s2)nc1
21 | 272 to 275 °C | Cc1sc(C)c2c(=O)n3cc(C(N)=O)ccc3nc12
22 | 112 to 114 °C | Cc1ccc(-c2csc(C(=O)O)n2)cc1
23 | 133 °C | CC(=O)N(O)Cc1cccc(C(O)C#Cc2ccsc2)c1 (stereo unspecified)
24 | 83 to 87 °C | COC(=O)C1=C(C)NC(C)=C(C(=O)OCCN2CCN(C(c3ccc(Cl)cc3)c3ccc(Cl)cc3)CC2)C1c1cccc([N+](=O)[O-])c1 (stereo unspecified)
25 | 275 to 276 °C | CCNc1nc2c(ccc3[nH]c4cnc(C(=O)OC(C)C)c(CC)c4c32)s1
26 | 208 to 210 °C | CCN(CC)CCNC(=O)c1cc2cc(I)ccc2[nH]1
27 | 205 to 206 °C | NC(=O)c1c(N2CCN(Cc3ccccc3)CC2)nn2c(-c3ccncc3)ccnc12
28 | 112 °C | Cc1ccc2nc(CN3CCN(c4ccc(F)cc4)CC3)cn2c1
29 | 104 to 105 °C | CS(=O)(=O)c1ccc(Oc2cc(OCC3CCOCC3)c3[nH]c(C4=NCC(CCO)S4)cc3c2)cc1 (stereo unspecified)
30 | 210 to 211 °C | C[C@H]([C@](O)(Cn1cncn1)c1ccc(F)cc1F)S(=O)(=O)N1CCN(Cc2nncn2C)CC1
31 | 114 to 117 °C | CCCCCCCCCCCCNC(=O)c1cc(-c2ccc(OC)cc2)c(OCC(=O)O)c(-c2cccc(Cl)c2)c1
32 | 136 to 138 °C | COC(=O)c1cc(C)cc2c1OCc1ccccc1C2C(=O)Nc1c(C(C)C)cccc1C(C)C (stereo unspecified)
33 | > 300 °C | O=C(O)CN1C(=O)C(=Cc2c[nH]c3ccccc23)SC1=S
34 | 152 °C | CCN(CC)Cc1ccc2c(c1)ncn2-c1cccc(-c2nccs2)c1
35 | 180 to 181 °C | Clc1ccc(C(Cn2ccnc2)OCc2cc(Cl)nc3ccccc23)c(Cl)c1 (stereo unspecified)
36 | 112 to 114 °C | COc1ccc(S(=O)(=O)N(CC(=O)NO)Cc2ccccc2)cc1
37 | > 280 °C | COc1cc(-n2cc(C(=O)O)c(=O)c3cc(F)c(F)c(C)c32)ccc1F

Second part, the compound before the results:

Row | Compound | melting point
38 | COc1cc(OC)c2c(=O)c(O)c(-c3ccc(OC)c(OC)c3)oc2c1 | 192 to 194 °C
39 | CC(=O)C1=CCC2C3CCC4CC5OC5CC4(C)C3C(=O)CC12C (stereo unspecified) | 154 to 156 °C
40 | CCOC(=O)C1=C(C=NOc2ccc([N+](=O)[O-])cc2[N+](=O)[O-])NC(CF)=C(C(=O)OCC)C1c1cccc([N+](=O)[O-])c1 (stereo unspecified) | 150 to 152 °C
41 | COc1cccc(Oc2cc(-c3ccc(C(F)(F)F)cc3)ccn2)c1 | 77.5 to 79.6 °C
42 | N#CSCSc1sccc1[N+](=O)[O-] | 51 to 53 °C
43 | CNC(Cc1ccccc1NC(=O)C(C)(C)C)c1ccsc1 (stereo unspecified) | 81 to 84 °C
44 | CC(=O)SCC(Cc1ccccc1)C(=O)NC1(C(=O)O)CC1 (stereo unspecified) | 169 to 171 °C
45 | COc1cn(C(c2ccccc2)c2ccccc2)c(=O)o1 | 125 to 127 °C
46 | CCCCCCCCCCCCCCCCSCC(CNS(=O)(=O)CCCCl)NC(=O)NC (stereo unspecified) | 79 to 80 °C
47 | Nc1ncccc1OCc1ccccc1F | 85 to 86 °C
48 | C=CCSc1c(O)cc(C)oc1=O | 98 to 98.5 °C
49 | Cc1cccc(N2Cc3ccccc3P2(=O)c2ccccc2)c1 (stereo unspecified) | 190 to 192 °C
50 | CCCCc1nc2cscc2[nH]1 | 118 °C
51 | COc1cc(-n2nc(Cl)cc2-c2ccc(S(C)(=O)=O)cc2)ccc1[N+](=O)[O-] | 170 to 175 °C
52 | COc1c(Cl)ccc(C#N)c1F | 94 to 97 °C
53 | COc1ccc(CCCC(=O)NC(NC(=NC#N)Nc2cccnc2C)C(C)(C)C)cc1 (stereo unspecified) | 65 to 68 °C
54 | CC(=O)Nc1ccn(C2CCC(COC(C)=O)O2)c(=O)n1 (stereo unspecified) | 210 to 211 °C

Row | Compound | melting point
55 | CC(=O)Nc1ccc(NC(=O)c2ccc(O)cc2)cc1 | 160 °C
56 | CCCCCCCC(=O)Nc1ccc2c(C(F)(F)F)cc(=O)oc2c1 | 137 °C
57 | COC(=O)c1cc(Oc2c(Cl)cc(C(F)(F)F)cc2Cl)n[nH]1 | 114 to 116 °C
58 | Cc1ccc2c(c1O)NC(S(=O)O)C1CC(C=CC(N)=O)=CN1C2=O (stereo unspecified) | 252 to 255 °C
59 | OCC1Cc2c(F)cccc2OC1CO (stereo unspecified) | 99 to 101 °C
60 | Cc1ccc2c(c1)CCC1=C2CCC(=O)N1C | 122 °C
61 | COC(=O)C(C)(C)C(Cc1ccc(OC)cc1)N(C)S(=O)(=O)c1ccc(C)cc1 (stereo unspecified) | 132 to 134 °C
62 | C=CCc1cc2c(C)cc(=O)oc2c(C)c1O | 166 to 167 °C
63 | N#Cc1cc(-c2ccccc2F)[nH]c1Cl | 218 to 220 °C
64 | CCCCOc1cc(/C=C(\OCC)C(=O)O)ccc1OCCc1ccc(OS(=O)(=O)CCCC)cc1 | 96 °C
65 | Cc1cccc(COc2cccnc2N)c1F | 115 to 118 °C
66 | COc1c(N(C)C)cc(CC(C#N)=CNc2ccccc2)cc1N(C)C | 103 to 105 °C
67 | CN(C)C=Cc1ccncc1C#N | 80 to 83 °C
68 | O=S(=O)(NC(CO)CO)c1ccc(Br)s1 | 80 °C
69 | O=C(NCC12CC3CC(CC(C3)C1)C2)c1cc(N2CC2)ccc1Cl | 154 to 155 °C
70 | Cn1nnnc1S(=O)(=O)Cc1ccccc1 | 122 to 125 °C
71 | COc1cc(C(C)C)c2c(c1)S(=O)(=O)N(COC(=O)c1ccsc1)C2=O | 125 to 127 °C
